Assays:
corn = test: Test A pre-/postemergence herbicide test; assay type: in vivo, Zea mays
How it was run: (§1)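 Both application timings used compounds in a non-phytotoxic solvent plus surfactant. Pre-emergence: soil sprayed directly after seeding into loam/sand. Post-emergence: foliage of 2–10 cm seedlings (1–2 leaves) sprayed. Injury rated ~10 days later, 0–100.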

morningglory = test: Test C pre-/postemergence herbicide test; assay type: in vivo, Ipomoea coccinea
How it was run: (§2)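 Herbicidal effect was judged by eye 13 to 15 days after treatment in the greenhouse, using a 0–100 scale against controls. Chemicals in a non-phytotoxic solvent with surfactant were sprayed onto planted loam/sand soil or onto plants 2 to 18 cm tall in a peat-based growing medium.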

lambsquarters = test: Test C pre-/postemergence herbicide test; assay type: in vivo, Chenopodium album
How it was run: as §2

giant foxtail = test: Test A pre-/postemergence herbicide test; assay type: in vivo, Setaria faberii
How it was run: as §1

rice = test: Test B flooded paddy test; assay type: in vivo, Oryza sativa; conditions: Flood, scale of 0 to 100 where 0 is no effect and 100 is complete control
How it was run: (§3)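 Paddy-water application at a 3 cm flood, young plants having two leaves. Water level maintained; greenhouse, 13–15 days; visual 0–100 control rating.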

nutsedge, yellow = test: Test C pre-/postemergence herbicide test; assay type: in vivo, Cyperus esculentus
How it was run: as §2

velvetleaf = test: Test C pre-/postemergence herbicide test; assay type: in vivo, Abutilon theophrasti
How it was run: as §2

foxtail, giant = test: Test C pre-/postemergence herbicide test; assay type: in vivo, Setaria faberii
How it was run: as §2

sedge, umbrella = test: Test B flooded paddy test; assay type: in vivo, Cyperus difformis; conditions: Flood, scale of 0 to 100 where 0 is no effect and 100 is complete control
How it was run: as §3

barnyardgrass = test: Test A pre-/postemergence herbicide test; assay type: in vivo, Echinochloa crus-galli
How it was run: as §1

wheat (winter wheat) = test: Test C pre-/postemergence herbicide test; assay type: in vivo, Triticum aestivum
How it was run: as §2

[1] = Postemergence, 125 g ai/ha, 0 to 100 scale, 0 no effect, 100 complete control
[2] = Postemergence, 500 g ai/ha, 0 to 100 scale (0 no effect, 100 complete control)
[3] = Preemergence, 125 g ai/ha, visual rating on 0 to 100 scale (0 no effect, 100 complete control)
[4] = preemergence, 500 g ai/ha, 0 to 100 scale
[5] = Preemergence, 31 g ai/ha, scale 0 to 100, 0 is no effect and 100 is complete control
[6] = Preemergence, 62 g ai/ha, scale 0 to 100
[7] = Preemergence, 125 g ai/ha, scale 0 to 100 (0 no effect, 100 complete control)
[8] = Postemergence, 1000 g ai/ha, 0 to 100 scale (0 no effect, 100 complete control)
[9] = preemergence, 1000 g ai/ha, 0 to 100 scale
[10] = Postemergence, 31 g ai/ha, scale 0 (no effect) to 100 (complete control)
[11] = Postemergence, 62 g ai/ha, scale 0 to 100 (0 no effect, 100 complete control)
[12] = Postemergence, 125 g ai/ha, scale 0 to 100 (0 no effect, 100 complete control)
[13] = Postemergence, 250 g ai/ha, scale 0 to 100 (0 no effect, 100 complete control)
[14] = Postemergence, 125 g ai/ha, 0 to 100 scale, 0 is no effect, 100 is complete control
[15] = Postemergence, 31 g ai/ha, scale 0 to 100 (0 no effect, 100 complete control)
[16] = Postemergence, 62 g ai/ha, scale 0 (no effect) to 100 (complete control)
[17] = Preemergence, 62 g ai/ha, scale 0 to 100 (0 no effect, 100 complete control)
[18] = 125 g ai/ha, visual rating, 0 to 100 scale, 0 no effect, 100 complete control, approximately 10 days, preemergence
[19] = preemergence, 500 g ai/ha, 0 to 100 scale, 0 is no effect and 100 is complete control

O=C1NCC(c2ccc(F)c(C(F)(F)F)c2)C1C(=O)Nc1cccc(F)c1F (racemic) [Compound 77]
Plant response rating, Corn (corn; [1]): 50 | Plant response rating, Corn (corn; [2]): 70 | Corn plant response rating (corn; [3]): 0 | Plant response rating, Corn (corn; [4]): 30 | Morningglory plant response rating (morningglory; [5]): 0 | Plant response rating, Morningglory (morningglory; [6]): 0 | Plant response rating, Morningglory (morningglory; [7]): 0 | Plant response rating (scale of 0 to 100), Morningglory (morningglory; Preemergence, 250 g ai/ha): 0 | Lambsquarters plant response rating (lambsquarters; [5]): 75 | Plant response rating, Lambsquarters (lambsquarters; [6]): 85 | Plant response rating, Lambsquarters (lambsquarters; [7]): 85 | Plant response rating (scale of 0 to 100), Lambsquarters (lambsquarters; Preemergence, 250 g ai/ha): 98 | Plant response rating, Foxtail, Giant (giant foxtail; [1]): 80 | Plant response rating, Foxtail, Giant (giant foxtail; [2]): 80 | Foxtail, Giant plant response rating (giant foxtail; [3]): 90 | Plant response rating, Foxtail, Giant (giant foxtail; [4]): 90 | Plant response rating, Rice (rice; 250 g ai/ha): 10 | Nutsedge, Yellow plant response rating (nutsedge, yellow; [5]): 0 | Plant response rating, Nutsedge, Yellow (nutsedge, yellow; [6]): 0 | Plant response rating, Nutsedge, Yellow (nutsedge, yellow; [7]): 0 | Plant response rating (scale of 0 to 100), Nutsedge, Yellow (nutsedge, yellow; Preemergence, 250 g ai/ha): 0 | Velvetleaf plant response rating (velvetleaf; [5]): 0 | Plant response rating, Velvetleaf (velvetleaf; [6]): 25 | Plant response rating, Velvetleaf (velvetleaf; [7]): 30 | Plant response rating (scale of 0 to 100), Velvetleaf (velvetleaf; Preemergence, 250 g ai/ha): 40 | Foxtail, Giant plant response rating (foxtail, giant; [5]): 90 | Plant response rating, Foxtail, Giant (foxtail, giant; [6]): 90 | Plant response rating, Foxtail, Giant (foxtail, giant; [7]): 95 | Plant response rating (scale of 0 to 100), Foxtail, Giant (foxtail, giant; Preemergence, 250 g ai/ha): 100 | Plant response rating, Sedge, Umbrella (sedge, umbrella; 250 g ai/ha): 0 | Plant response rating, Barnyardgrass (barnyardgrass; [1]): 70 | Plant response rating, Barnyardgrass (barnyardgrass; [2]): 80 | Barnyardgrass plant response rating (barnyardgrass; [3]): 80 | Plant response rating, Barnyardgrass (barnyardgrass; preemergence, 500 g ai/ha, 0 to 100 scale (0 no effect, 100 complete control)): 90 | Wheat plant response rating (wheat (winter wheat); [5]): 0 | Plant response rating, Wheat (wheat (winter wheat); [6]): 55 | Plant response rating, Wheat (wheat (winter wheat); [7]): 80 | Plant response rating (scale of 0 to 100), Wheat (wheat (winter wheat); Preemergence, 250 g ai/ha): 90

Cc1c(F)cccc1NC(=O)C1C(=O)NCC1c1ccc(F)c(F)c1 (racemic) [Compound 106]
Plant response rating, Corn (corn; [8]): 50 | Plant response rating, Corn (corn; [9]): 30 | Plant response rating, Morningglory (morningglory; [10]): 0 | Plant response rating, Morningglory (morningglory; [11]): 5 | Plant response rating, Morningglory (morningglory; [12]): 10 | Plant response rating, Morningglory (morningglory; [13]): 5 | Plant response rating, Lambsquarters (lambsquarters; [10]): 0 | Plant response rating, Lambsquarters (lambsquarters; [11]): 25 | Plant response rating, Lambsquarters (lambsquarters; [12]): 0 | Plant response rating, Lambsquarters (lambsquarters; [13]): 0 | Plant response rating, Foxtail, Giant (giant foxtail; [8]): 90 | Plant response rating, Foxtail, Giant (giant foxtail; [9]): 90 | Plant response rating, Rice (rice; 1000 g ai/ha): 15 | Plant response rating, Nutsedge, Yellow (nutsedge, yellow; [10]): 0 | Plant response rating, Nutsedge, Yellow (nutsedge, yellow; [11]): 0 | Plant response rating, Nutsedge, Yellow (nutsedge, yellow; [12]): 0 | Plant response rating, Nutsedge, Yellow (nutsedge, yellow; [13]): 0 | Plant response rating, Velvetleaf (velvetleaf; [10]): 0 | Plant response rating, Velvetleaf (velvetleaf; [11]): 0 | Plant response rating, Velvetleaf (velvetleaf; [12]): 5 | Plant response rating, Velvetleaf (velvetleaf; [13]): 5 | Plant response rating, Foxtail, Giant (foxtail, giant; [10]): 50 | Plant response rating, Foxtail, Giant (foxtail, giant; [11]): 35 | Plant response rating, Foxtail, Giant (foxtail, giant; [12]): 45 | Plant response rating, Foxtail, Giant (foxtail, giant; [13]): 50 | Plant response rating, Sedge, Umbrella (sedge, umbrella; 1000 g ai/ha): 0 | Plant response rating, Barnyardgrass (barnyardgrass; [8]): 90 | Plant response rating, Barnyardgrass (barnyardgrass; preemergence, 1000 g ai/ha, 0 to 100 scale (0 no effect, 100 complete control)): 90 | Plant response rating, Wheat (wheat (winter wheat); [10]): 0 | Plant response rating, Wheat (wheat (winter wheat); [11]): 0 | Plant response rating, Wheat (wheat (winter wheat); [12]): 0 | Plant response rating, Wheat (wheat (winter wheat); [13]): 0

O=C1NC[C@H](c2cccc(C(F)(F)F)c2)[C@H]1C(=O)Nc1cccc(F)c1F [Compound 206]
Plant response rating, Corn (corn; [14]): 60 | Corn plant response rating (0 to 100 scale, 0 is no effect, 100 is complete control) (corn; Postemergence, 500 g ai/ha): 80 | Plant response rating, Morningglory (morningglory; [15]): 20 | Plant response rating, Morningglory (morningglory; [16]): 20 | Plant response rating, Morningglory (morningglory; [12]): 35 | Plant response rating, Morningglory (morningglory; [13]): 45 | Morningglory plant response rating (morningglory; [5]): 0 | Morningglory plant response rating (morningglory; [17]): 0 | Plant response rating, Morningglory (morningglory; [7]): 0 | Plant response rating (scale of 0 to 100), Morningglory (morningglory; Preemergence, 250 g ai/ha): 10 | Plant response rating, Lambsquarters (lambsquarters; [15]): 50 | Plant response rating, Lambsquarters (lambsquarters; [16]): 75 | Plant response rating, Lambsquarters (lambsquarters; [12]): 10 | Plant response rating, Lambsquarters (lambsquarters; [13]): 20 | Lambsquarters plant response rating (lambsquarters; [5]): 75 | Lambsquarters plant response rating (lambsquarters; [17]): 100 | Plant response rating, Lambsquarters (lambsquarters; [7]): 100 | Plant response rating (scale of 0 to 100), Lambsquarters (lambsquarters; Preemergence, 250 g ai/ha): 100 | Plant response rating, Foxtail, Giant (giant foxtail; [18]): 90 | Plant response rating, Foxtail, Giant (giant foxtail; [14]): 90 | Foxtail, Giant plant response rating (0 to 100 scale, 0 is no effect, 100 is complete control) (giant foxtail; Postemergence, 500 g ai/ha): 90 | Plant response rating, Foxtail, Giant (giant foxtail; [19]): 90 | Plant response rating, Nutsedge, Yellow (nutsedge, yellow; [15]): 0 | Plant response rating, Nutsedge, Yellow (nutsedge, yellow; [16]): 20 | Plant response rating, Nutsedge, Yellow (nutsedge, yellow; [12]): 0 | Plant response rating, Nutsedge, Yellow (nutsedge, yellow; [13]): 0 | Nutsedge, Yellow plant response rating (nutsedge, yellow; [5]): 0 | Nutsedge, Yellow plant response rating (nutsedge, yellow; [17]): 0 | Plant response rating, Nutsedge, Yellow (nutsedge, yellow; [7]): 0 | Plant response rating (scale of 0 to 100), Nutsedge, Yellow (nutsedge, yellow; Preemergence, 250 g ai/ha): 0 | Plant response rating, Velvetleaf (velvetleaf; [15]): 0 | Plant response rating, Velvetleaf (velvetleaf; [16]): 0 | Plant response rating, Velvetleaf (velvetleaf; [12]): 15 | Plant response rating, Velvetleaf (velvetleaf; [13]): 15 | Velvetleaf plant response rating (velvetleaf; [5]): 0 | Velvetleaf plant response rating (velvetleaf; [17]): 50 | Plant response rating, Velvetleaf (velvetleaf; [7]): 40 | Plant response rating (scale of 0 to 100), Velvetleaf (velvetleaf; Preemergence, 250 g ai/ha): 60 | Plant response rating, Foxtail, Giant (foxtail, giant; [15]): 0 | Plant response rating, Foxtail, Giant (foxtail, giant; [16]): 50 | Plant response rating, Foxtail, Giant (foxtail, giant; [12]): 50 | Plant response rating, Foxtail, Giant (foxtail, giant; [13]): 85 | Foxtail, Giant plant response rating (foxtail, giant; [5]): 90 | Foxtail, Giant plant response rating (foxtail, giant; [17]): 90 | Plant response rating, Foxtail, Giant (foxtail, giant; [7]): 95 | Plant response rating (scale of 0 to 100), Foxtail, Giant (foxtail, giant; Preemergence, 250 g ai/ha): 95 | Plant response rating, Barnyardgrass (barnyardgrass; [18]): 90 | Plant response rating, Barnyardgrass (barnyardgrass; [14]): 90 | Barnyardgrass plant response rating (0 to 100 scale, 0 is no effect, 100 is complete control) (barnyardgrass; Postemergence, 500 g ai/ha): 90 | Plant response rating, Barnyardgrass (barnyardgrass; [19]): 90 | Plant response rating, Wheat (wheat (winter wheat); [15]): 0 | Plant response rating, Wheat (wheat (winter wheat); [16]): 0 | Plant response rating, Wheat (wheat (winter wheat); [12]): 30 | Plant response rating, Wheat (wheat (winter wheat); [13]): 45 | Wheat plant response rating (wheat (winter wheat); [5]): 35 | Wheat plant response rating (wheat (winter wheat); [17]): 40 | Plant response rating, Wheat (wheat (winter wheat); [7]): 70 | Plant response rating (scale of 0 to 100), Wheat (wheat (winter wheat); Preemergence, 250 g ai/ha): 70

Reference: patent US10294202B2, “Pyrrolidinones as herbicides” (FMC Corporation, priority 2013, dated 2019)
